Test [1] has as its target Protein Rev (Human immunodeficiency virus type 1 group M subtype B (isolate WMJ22)(HIV-1), UniProt P05866). As to the kind of experiment: HIV-1 Rev-RRE RNA binding disruptors, dose response, biochemical, protein-RNA interaction (AID 842). On the set-up: species or system Human immunodeficiency virus 1.
In test [2] the test system is Streptococcus. Put plainly: Group A Streptococcus viability loss, dose response, counter-screen for streptokinase expression inhibitor project, luminescence, BacTiterGlo (AID 1915).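 Further: potency for reduction of bacterial viability or growth.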 Format: functional, organism-based.
Test [3] relates to Streptococcus. Put plainly: Luminescence Microorganism-Based Dose Response Follow up to Identify Compounds Cytotoxic to Streptococcus. [Related pubchem assays: 1677 (Project Summary), 1915, 1914, 1902 (Retest at Dose), 1900 (Counter Screen), 1662 (Primary HTS)]. It is filed as functional, organism-based.
In test [4] the target is T1, Streptokinase A (Streptococcus pyogenes serotype M1, UniProt P10520).
T1 sequence (P10520 whole entry): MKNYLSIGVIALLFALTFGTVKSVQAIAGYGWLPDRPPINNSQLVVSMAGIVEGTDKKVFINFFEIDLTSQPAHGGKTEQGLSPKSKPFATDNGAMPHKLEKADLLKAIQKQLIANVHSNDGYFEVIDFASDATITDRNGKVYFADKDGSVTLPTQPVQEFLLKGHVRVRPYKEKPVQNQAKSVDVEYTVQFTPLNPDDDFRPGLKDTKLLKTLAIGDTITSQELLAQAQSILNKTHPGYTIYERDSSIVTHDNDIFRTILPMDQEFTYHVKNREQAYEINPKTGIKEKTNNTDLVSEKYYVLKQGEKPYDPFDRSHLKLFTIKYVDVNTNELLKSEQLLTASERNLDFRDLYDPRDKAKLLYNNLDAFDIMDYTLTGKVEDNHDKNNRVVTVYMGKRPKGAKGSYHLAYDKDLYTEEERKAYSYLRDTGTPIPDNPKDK
Put plainly: S. pyogenes streptokinase expression inhibitors, potency, dose response, plasminogen activation absorbance, OD405 (AID 1914).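 Further: secreted streptokinase activity via plasminogen activation per viability signal from cell pellet.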 Format: functional, Streptococcus pyogenes M1 GAS.

Test [5] has as its system Streptococcus sp. 'group A'. As to the kind of experiment: growth inhibition of control SK(-) GAS strain, dose response, counter-screen for streptokinase expression inhibitor project, luminescence, kanamycin, BacTiterGlo, confirmation (AID 1900). Format: functional, organism-based.
Test [6] concerns the target Wee1-like protein kinase (Homo sapiens, UniProt P30291). As to the kind of experiment: Dose Response Cell-based Assay for Inhibitors of Wee1 Degradation. [Related pubchem assays: 1410, 1321 ]. Format: functional.
The target of test [7] is E3 ubiquitin-protein ligase Mdm2 (Homo sapiens, UniProt Q00987). As to the kind of experiment: enhancers of MDM2-luciferase reporter signal, concentration-effect titration, project on inhibitors of MDM2 ubiquitin ligase, cellular assay, luminescent readout, 384-well plate format (AID 1394).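 Further: MDM2 E3 inhibitors raise luminescence so EC50 is for signal enhancement.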 Format: functional.
E3 ubiquitin-protein ligase Mdm2, sequence (Q00987 whole entry): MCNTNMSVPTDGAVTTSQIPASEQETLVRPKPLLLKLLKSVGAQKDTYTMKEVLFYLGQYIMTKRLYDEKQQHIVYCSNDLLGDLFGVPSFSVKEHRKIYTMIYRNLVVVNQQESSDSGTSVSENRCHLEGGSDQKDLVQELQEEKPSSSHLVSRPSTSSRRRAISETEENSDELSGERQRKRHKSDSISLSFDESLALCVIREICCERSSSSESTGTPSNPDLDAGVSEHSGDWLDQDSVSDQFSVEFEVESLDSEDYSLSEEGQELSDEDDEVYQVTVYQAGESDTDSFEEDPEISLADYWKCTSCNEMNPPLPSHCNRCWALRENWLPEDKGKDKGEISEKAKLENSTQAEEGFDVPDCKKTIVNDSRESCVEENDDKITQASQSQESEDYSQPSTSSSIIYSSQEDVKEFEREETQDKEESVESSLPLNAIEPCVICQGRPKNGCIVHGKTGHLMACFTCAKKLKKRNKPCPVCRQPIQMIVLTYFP
A short description of test [8]: cytotoxicity toward NIH3T3 fibroblasts, dose response, counter-screen, cell-based, ATP luminescence, mouse fibroblasts (AID 2010).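 Further: cells exposed to compound for about 90 hours before reading.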 It is filed as functional.
Test [9] addresses T2, Protein RecA (Mycobacterium tuberculosis, UniProt P9WHJ3).
T2 sequence (P9WHJ3 whole entry): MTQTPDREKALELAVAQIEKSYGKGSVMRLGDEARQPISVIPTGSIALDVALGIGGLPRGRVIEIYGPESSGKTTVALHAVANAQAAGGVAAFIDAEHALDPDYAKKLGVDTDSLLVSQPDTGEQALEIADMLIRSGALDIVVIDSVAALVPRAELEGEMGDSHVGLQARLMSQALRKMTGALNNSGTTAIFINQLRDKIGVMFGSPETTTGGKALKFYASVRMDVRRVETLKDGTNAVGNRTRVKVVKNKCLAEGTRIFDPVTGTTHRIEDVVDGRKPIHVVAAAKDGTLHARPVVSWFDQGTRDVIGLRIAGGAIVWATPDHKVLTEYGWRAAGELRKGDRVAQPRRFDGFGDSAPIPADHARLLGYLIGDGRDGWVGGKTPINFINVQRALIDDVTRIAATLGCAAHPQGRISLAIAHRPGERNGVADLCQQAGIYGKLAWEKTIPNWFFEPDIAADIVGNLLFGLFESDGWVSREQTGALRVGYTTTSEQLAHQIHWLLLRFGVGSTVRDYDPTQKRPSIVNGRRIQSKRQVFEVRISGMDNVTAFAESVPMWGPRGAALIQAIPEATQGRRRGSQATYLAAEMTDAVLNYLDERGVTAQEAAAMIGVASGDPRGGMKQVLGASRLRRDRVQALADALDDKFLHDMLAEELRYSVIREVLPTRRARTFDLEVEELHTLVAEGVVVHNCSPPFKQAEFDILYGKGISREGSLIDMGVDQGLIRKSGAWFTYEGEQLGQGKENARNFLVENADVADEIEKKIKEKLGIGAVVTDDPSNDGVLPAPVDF
As to the kind of experiment: Fluorescence Cell-Free Homogeneous Dose Retest to Identify Inhibitors of RecA-Intein Splicing Activity. [Related pubchem assays (depositor defined):AID2097, AID2223, AID489010, AID492950]. Format: functional.

The test system of test [10] is BJ. As to the kind of experiment: cells. It is filed as functional, cell-based. As to conditions: Homo sapiens.
A short description of test [11]: inhibitors of intracellular T. cruzi replication, confirmation, NIH3T3 host cells, beta-gal luminescence (AID 2044).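 Further: intracellular parasites grown in NIH/3T3 mouse fibroblasts as host cells; luminescent beta-galactosidase reporter signal from transgenic T. cruzi replicating inside host cells; inhibitors lower the luminescence signal.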 It is filed as functional, cell-based.
Test [12] in a line: cytotoxicity toward DRD oncogenic fibroblasts, dose response, cell-based, non-viral oncogenic, luminescence (AID 1934). Format: functional. As to conditions: Homo sapiens.
The target of test [13] is T3, Replicative DNA helicase DnaB (Mycobacterium tuberculosis, UniProt P9WMR3).
T3 sequence (P9WMR3 whole entry): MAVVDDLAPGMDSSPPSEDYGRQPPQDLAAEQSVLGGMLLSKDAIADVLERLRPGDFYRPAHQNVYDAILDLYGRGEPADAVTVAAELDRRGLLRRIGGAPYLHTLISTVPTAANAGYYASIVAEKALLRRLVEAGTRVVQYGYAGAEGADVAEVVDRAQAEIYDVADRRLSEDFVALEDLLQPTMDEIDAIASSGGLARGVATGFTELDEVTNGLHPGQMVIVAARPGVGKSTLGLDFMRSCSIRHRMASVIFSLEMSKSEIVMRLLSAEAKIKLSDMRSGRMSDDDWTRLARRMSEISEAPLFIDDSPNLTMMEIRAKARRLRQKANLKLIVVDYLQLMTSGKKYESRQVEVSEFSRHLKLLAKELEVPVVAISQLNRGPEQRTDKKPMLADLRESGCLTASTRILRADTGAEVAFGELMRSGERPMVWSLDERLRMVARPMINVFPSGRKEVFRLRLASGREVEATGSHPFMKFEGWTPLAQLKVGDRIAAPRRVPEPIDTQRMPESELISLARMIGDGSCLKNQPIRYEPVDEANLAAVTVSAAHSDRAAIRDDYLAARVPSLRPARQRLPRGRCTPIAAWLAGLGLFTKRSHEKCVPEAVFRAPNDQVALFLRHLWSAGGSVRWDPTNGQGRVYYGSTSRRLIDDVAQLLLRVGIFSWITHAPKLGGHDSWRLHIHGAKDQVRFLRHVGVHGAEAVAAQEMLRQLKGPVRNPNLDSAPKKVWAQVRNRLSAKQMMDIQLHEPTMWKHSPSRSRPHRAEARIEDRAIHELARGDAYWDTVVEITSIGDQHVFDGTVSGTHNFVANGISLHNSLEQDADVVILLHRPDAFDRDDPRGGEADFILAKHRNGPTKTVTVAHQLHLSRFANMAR
As to the kind of experiment: DnaB intein splicing inhibitors, dose response, biochemical, cell-free fluorescence (AID 449749). Format: functional.

The test system of test [14] is BJ. Put plainly: cytotoxicity toward BJ-TERT-LT-ST fibroblasts, dose response, cell-based, RAS-independent, luminescence (AID 1935).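 Further: BJ fibroblasts immortalized with TERT plus LT and ST oncogenes.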 It is filed as functional. As to conditions: Homo sapiens.
The target of test [15] is G2/mitotic-specific cyclin-B1 (Homo sapiens, UniProt P14635). As to the kind of experiment: Counterscreen assay for inhibitors of Wee1 degradation: dose response cell-based assay to identify inhibitors of cyclin B degradation. [Related pubchem assays: 1410, 1321 ]. Format: functional.
G2/mitotic-specific cyclin-B1, sequence (P14635 whole entry): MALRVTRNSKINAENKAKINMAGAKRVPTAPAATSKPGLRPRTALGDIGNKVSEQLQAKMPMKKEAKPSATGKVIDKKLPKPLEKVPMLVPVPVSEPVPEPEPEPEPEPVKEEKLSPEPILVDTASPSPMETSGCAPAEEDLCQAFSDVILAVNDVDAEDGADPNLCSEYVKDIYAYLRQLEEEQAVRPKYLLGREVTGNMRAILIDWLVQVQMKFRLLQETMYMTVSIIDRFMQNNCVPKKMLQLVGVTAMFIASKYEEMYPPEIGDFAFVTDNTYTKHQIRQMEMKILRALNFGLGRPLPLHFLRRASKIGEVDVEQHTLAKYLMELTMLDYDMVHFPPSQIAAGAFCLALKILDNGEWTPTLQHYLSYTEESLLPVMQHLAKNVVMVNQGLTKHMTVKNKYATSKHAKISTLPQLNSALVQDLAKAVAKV
Test [16] has as its target Photoreceptor-specific nuclear receptor (Homo sapiens, UniProt Q9Y5X4). It is filed as functional.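 Further: potency for compounds that break the NR2E3 corepressor complex and count as activators.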
Test [17] addresses Peroxisome proliferator-activated receptor gamma/Nuclear receptor corepressor 2 (Homo sapiens, UniProt P37231+Q9Y618). Format: functional.
Test [18] concerns the target Lysosomal acid glucosylceramidase (Homo sapiens, UniProt P04062). Put plainly: Dose response cell-based high throughput screening assay to identify enhancers of beta-glucosidase activity. [Related pubchem assays: 784 ]. It is filed as functional.
Test [19] addresses Melanin-concentrating hormone receptor 1 (Homo sapiens, UniProt Q99705). Put plainly: Fluorescence-based counterscreen for antagonists of the G-protein coupled receptor 7 (GPR7): cell-based high throughput dose response assay to identify antagonists of the melanin-concentrating hormone receptor 1 (MCHR1). It is filed as functional.
For test [20], the target named is T4, Neuropeptides B/W receptor type 1 (Homo sapiens, UniProt P48145).
T4 sequence (P48145 whole entry): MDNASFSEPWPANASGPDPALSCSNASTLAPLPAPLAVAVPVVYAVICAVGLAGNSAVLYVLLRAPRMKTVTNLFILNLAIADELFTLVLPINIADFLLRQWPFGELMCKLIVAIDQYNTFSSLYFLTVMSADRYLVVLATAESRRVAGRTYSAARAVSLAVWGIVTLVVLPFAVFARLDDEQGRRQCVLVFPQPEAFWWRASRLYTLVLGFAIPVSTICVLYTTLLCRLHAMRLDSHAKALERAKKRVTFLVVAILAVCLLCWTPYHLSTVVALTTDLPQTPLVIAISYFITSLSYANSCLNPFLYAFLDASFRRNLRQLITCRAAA
As to the kind of experiment: Fluorescence-based dose response cell-based high throughput screening assay to identify antagonists of the G-protein coupled receptor 7 (GPR7). [Related pubchem assays: 1952 (Screening assay (GPR7 antagonists).), 1880 (Summary AID.)]. Format: functional.

Test [21] has as its target Cytochrome P450 2C9 (Homo sapiens, UniProt P11712). As to conditions: Potency.
Test [22] addresses T5, G-protein coupled receptor 35 (Homo sapiens, UniProt Q9HC97). Put plainly: SAR Analysis for the identification of Selective Antagonists of ERK1/2 Activity in GPR35-Overexpressing U2OS Cells - Set 2. [Related pubchem assays (depositor defined):AID2058, AID2079]. Format: functional, cell-based.
Test [23] addresses T5, G-protein coupled receptor 35. As to the kind of experiment: SAR analysis of Antagonists of the GPR35 Receptor using an Image-Based Assay - Set 5. [Related pubchem assays (depositor defined):AID2058, AID2079]. It is filed as functional.
In test [24] the target is G-protein coupled receptor 55 (Homo sapiens, UniProt Q9Y2T6). As to the kind of experiment: SAR Analysis of Selective Antagonists of GPR55 using an Image-Based Assay - Set 3. [Related pubchem assays (depositor defined):AID2058, AID2079]. It is filed as functional.
G-protein coupled receptor 55, sequence (Q9Y2T6 whole entry): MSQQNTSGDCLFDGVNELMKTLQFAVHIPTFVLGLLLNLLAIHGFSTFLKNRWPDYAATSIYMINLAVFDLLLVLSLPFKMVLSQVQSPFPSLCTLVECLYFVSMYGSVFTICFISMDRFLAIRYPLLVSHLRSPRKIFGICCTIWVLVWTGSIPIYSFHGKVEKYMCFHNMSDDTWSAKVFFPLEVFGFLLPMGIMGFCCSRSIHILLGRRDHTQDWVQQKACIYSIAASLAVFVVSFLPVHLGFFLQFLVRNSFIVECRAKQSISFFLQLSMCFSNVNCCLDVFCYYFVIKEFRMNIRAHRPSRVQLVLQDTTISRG

Consider eight compounds from ChEMBL document CHEMBL1201862, “PubChem BioAssay data set” (2004).

Each structure is given as a SMILES string. The source made the active and inactive calls.

T5 sequence (Q9HC97 whole entry): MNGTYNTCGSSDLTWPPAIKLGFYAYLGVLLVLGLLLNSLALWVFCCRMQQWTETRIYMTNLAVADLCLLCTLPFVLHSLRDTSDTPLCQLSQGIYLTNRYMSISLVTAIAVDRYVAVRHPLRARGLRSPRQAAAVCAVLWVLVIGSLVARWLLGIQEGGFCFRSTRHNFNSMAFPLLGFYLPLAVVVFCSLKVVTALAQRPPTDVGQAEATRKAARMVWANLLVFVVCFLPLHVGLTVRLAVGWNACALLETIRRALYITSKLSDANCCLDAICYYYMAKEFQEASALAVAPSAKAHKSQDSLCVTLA
Photoreceptor-specific nuclear receptor, sequence (Q9Y5X4 whole entry): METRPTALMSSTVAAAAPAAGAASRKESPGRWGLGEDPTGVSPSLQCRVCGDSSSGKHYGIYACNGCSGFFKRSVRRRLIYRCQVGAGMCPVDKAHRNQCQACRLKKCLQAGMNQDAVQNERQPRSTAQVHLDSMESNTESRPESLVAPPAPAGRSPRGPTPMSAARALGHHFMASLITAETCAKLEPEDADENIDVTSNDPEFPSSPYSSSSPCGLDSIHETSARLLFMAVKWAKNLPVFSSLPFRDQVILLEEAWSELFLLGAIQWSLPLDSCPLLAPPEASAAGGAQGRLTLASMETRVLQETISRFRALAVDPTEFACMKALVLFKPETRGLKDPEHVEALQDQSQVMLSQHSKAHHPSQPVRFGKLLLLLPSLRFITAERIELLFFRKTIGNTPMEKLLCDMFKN
Protein Rev, sequence (P05866 whole entry): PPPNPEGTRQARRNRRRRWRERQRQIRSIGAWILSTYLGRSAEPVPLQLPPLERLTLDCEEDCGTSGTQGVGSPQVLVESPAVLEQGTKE
Wee1-like protein kinase, sequence (P30291 whole entry): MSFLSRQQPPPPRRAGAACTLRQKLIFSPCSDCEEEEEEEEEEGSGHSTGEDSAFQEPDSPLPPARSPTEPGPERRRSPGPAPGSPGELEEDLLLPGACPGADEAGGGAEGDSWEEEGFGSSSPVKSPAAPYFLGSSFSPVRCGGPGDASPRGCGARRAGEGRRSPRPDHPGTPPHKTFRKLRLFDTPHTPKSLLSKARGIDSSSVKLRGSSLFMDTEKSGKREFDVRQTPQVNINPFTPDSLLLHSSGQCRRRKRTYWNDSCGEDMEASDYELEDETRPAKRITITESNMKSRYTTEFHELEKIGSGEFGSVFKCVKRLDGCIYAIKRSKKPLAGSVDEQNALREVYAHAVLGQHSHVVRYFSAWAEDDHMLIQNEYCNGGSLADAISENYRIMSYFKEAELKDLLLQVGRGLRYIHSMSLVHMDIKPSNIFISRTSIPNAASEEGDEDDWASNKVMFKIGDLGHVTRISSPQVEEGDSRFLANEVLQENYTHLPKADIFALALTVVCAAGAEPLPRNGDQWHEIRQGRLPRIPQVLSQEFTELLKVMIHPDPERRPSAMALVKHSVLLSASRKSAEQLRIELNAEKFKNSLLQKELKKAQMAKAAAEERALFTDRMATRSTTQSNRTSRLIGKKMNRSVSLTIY
Cytochrome P450 2C9, sequence (P11712 whole entry): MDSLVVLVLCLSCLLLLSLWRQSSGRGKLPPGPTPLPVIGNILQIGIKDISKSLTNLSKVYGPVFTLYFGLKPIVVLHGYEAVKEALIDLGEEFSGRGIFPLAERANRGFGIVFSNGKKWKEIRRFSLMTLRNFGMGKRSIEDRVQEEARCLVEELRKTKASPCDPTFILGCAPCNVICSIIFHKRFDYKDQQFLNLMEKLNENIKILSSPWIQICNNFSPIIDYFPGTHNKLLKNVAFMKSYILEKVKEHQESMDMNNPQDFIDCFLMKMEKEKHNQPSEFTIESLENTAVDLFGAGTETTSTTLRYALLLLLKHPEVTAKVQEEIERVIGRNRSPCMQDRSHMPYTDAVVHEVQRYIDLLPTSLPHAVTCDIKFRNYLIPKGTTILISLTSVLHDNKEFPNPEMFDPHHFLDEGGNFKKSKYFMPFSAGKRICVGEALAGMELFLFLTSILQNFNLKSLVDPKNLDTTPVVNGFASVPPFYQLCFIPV
Lysosomal acid glucosylceramidase, sequence (P04062 whole entry): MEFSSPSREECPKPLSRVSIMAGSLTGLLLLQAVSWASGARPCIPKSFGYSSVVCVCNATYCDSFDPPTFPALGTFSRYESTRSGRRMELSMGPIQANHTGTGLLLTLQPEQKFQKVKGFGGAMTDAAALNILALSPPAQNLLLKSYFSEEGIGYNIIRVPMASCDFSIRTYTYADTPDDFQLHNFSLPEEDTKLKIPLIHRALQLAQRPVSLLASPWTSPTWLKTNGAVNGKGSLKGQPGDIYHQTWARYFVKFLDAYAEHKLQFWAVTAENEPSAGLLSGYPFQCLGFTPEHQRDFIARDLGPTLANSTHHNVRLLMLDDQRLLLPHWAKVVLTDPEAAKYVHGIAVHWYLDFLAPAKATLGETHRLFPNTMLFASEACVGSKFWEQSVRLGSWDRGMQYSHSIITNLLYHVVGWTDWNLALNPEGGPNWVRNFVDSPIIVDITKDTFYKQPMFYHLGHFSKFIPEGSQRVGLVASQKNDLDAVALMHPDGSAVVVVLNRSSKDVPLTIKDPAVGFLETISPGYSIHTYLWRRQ
Melanin-concentrating hormone receptor 1, sequence (Q99705 whole entry): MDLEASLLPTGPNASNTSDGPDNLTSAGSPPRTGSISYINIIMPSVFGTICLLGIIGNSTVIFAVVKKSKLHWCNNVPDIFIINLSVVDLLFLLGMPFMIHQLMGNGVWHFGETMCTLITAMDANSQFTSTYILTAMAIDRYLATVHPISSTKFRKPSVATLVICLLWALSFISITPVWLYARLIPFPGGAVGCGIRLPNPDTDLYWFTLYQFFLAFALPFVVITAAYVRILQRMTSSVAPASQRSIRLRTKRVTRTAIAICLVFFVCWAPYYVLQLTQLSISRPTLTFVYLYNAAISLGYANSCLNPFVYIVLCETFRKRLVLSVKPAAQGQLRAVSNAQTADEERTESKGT

For the compound `CNCCCOc1ccc(C(C)(C)c2ccccc2)cc1`, the IC50 in [1] is > 79.4 µM (not active).
For the compound `Cc1ccc(SCC(=O)N2c3ccccc3Sc3ccccc32)cc1`, the EC50 in test [2] was > 150 µM (not active); in test [3], > 500 µM (not active); in [4], 10.9 µM (active); in [5], > 150 µM (not active).
With `CCOC(=O)C1=C(c2ccccc2)O/C(=C(/C#N)C(F)(F)F)S1`, the EC50 in test [6] is > 1.84 µM (active); in [7], 0.84 µM (active); in [8], 4.88 µM (active); in test [9], 0.723 µM (active); in test [10], 4.58 µM (inconclusive); in [11], 2.37 µM (active). The figures for the EC50 in test [12], in [14] and in [15] were 6.24 µM (inconclusive), 5.47 µM (inconclusive) and > 1.84 µM (active), respectively. In addition, the AC50 in test [13] is > 380 µM (inactive).
Consider `CCOc1ncccc1C(=O)Nc1ccc(C(=O)Nc2ccc(OC)cc2)cc1`, for which the IC50 is > 39.8 µM (not active) in test [16] and 3.53 µM (active) in test [17].
For `COc1ccc(S(=O)(=O)NCC(=O)N(CC(=O)NCC2CCCO2)c2ccccc2C)cc1` (centres undefined), the EC50 in test [18] is > 50 µM (not active).
With `Cc1ccccc1CN1C(=O)c2ccccc2Sc2ccc(C(=O)NCCCN3CCOCC3)cc21`, the IC50 in test [19] is 12.1 µM (not active); in [20] it was 8.23 µM (active).
`CC(C)C[C@@H](CC(=O)N[C@H](CC(=O)N[C@@H]1CCNC[C@H]1C(=O)N[C@H](CC(=O)N[C@@H](CCC(=O)O)CC(=O)O)CC(C)C)C(C)C)NC(=O)[C@@H]1CNCC[C@H]1N`: in test [21], the AC50 is 39.8 µM (inconclusive).
As to `COC(=O)c1cnn(-c2ccc(F)cc2F)c1/C=N/NC(=S)Nc1ccc(Cl)cc1`, the values for the IC50 in test [22], in [23] and in test [24] were 1.69 µM (active), 0.171 µM (active) and > 32 µM (inactive), respectively.
